ChEMBL document CHEMBL3739306, “Enantiomeric resolution of [(2,2-diphenyl-1,3-dioxolan-4-yl)methyl](2-phenoxyethyl)amine, a potent 1and 5-HT1Areceptor ligand: an in vitro and computational study” (Medchemcomm, 2015)

Assays:
[1] = molecular target: T1, Alpha-1D adrenergic receptor (Homo sapiens, UniProt P25100); test: Displacement of [3H]prazosin from human recombinant alpha1D adrenoceptor expressed in CHO cell membrane after 30 mins by liquid scintillation counting; assay type: cell membranes
T1 sequence (P25100 whole entry): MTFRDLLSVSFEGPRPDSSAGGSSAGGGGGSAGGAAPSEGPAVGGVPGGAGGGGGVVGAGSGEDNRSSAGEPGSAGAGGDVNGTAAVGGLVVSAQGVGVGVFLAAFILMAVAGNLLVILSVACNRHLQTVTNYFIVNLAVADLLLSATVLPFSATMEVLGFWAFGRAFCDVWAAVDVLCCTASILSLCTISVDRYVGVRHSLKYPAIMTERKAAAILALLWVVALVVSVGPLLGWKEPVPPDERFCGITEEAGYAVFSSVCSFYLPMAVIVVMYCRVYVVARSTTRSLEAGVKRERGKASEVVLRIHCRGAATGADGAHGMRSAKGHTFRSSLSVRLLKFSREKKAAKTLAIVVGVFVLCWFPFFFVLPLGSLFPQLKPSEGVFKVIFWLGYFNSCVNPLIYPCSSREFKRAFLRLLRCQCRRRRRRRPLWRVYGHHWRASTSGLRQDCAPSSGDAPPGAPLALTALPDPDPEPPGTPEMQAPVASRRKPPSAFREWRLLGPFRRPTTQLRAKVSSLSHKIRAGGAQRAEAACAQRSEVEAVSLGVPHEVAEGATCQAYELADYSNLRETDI

[2] = tested on: CHO; test: Selectivity index, ratio of pKi for human recombinant 5-HT1A receptor expressed in HeLa cell membrane to pKi for human recombinant alpha1D adrenoceptor expressed in CHO cell membrane; assay type: cell-based
[3] = species: Rattus norvegicus; test: Selectivity ratio of pKb for alpha1A adrenoceptor in Wistar rat vas deferans to pKb for alpha1B adrenoceptor in Wistar rat spleen
[4] = tested on: CHO; test: Selectivity index, ratio of pKi for human recombinant alpha1D adrenoceptor to pKi for human recombinant alpha1A adrenoceptor expressed in CHO cell membrane; assay type: cell-based
[5] = molecular target: T2, 5-hydroxytryptamine receptor 1A (Homo sapiens) (UniProt P08908); test: Agonist activity at human recombinant 5-HT1A receptor expressed in HeLa cell membrane after 20 mins by [35S]GTPgammaS binding assay; assay type: functional, cell membranes
T2 sequence (whole entry): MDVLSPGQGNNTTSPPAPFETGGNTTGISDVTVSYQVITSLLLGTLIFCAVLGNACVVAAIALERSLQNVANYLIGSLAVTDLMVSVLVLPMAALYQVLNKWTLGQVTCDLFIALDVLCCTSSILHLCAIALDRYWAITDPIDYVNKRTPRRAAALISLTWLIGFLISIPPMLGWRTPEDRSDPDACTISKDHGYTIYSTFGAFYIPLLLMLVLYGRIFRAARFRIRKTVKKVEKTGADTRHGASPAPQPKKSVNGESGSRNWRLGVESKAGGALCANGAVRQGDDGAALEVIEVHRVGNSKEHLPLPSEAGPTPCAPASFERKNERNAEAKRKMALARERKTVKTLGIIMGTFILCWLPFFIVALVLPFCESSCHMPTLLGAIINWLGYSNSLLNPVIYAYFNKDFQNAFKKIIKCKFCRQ

[6] = molecular target: T3, Alpha-1D adrenergic receptor (Rattus norvegicus, UniProt P23944); test: Antagonist activity at alpha1D adrenoceptor in Wistar rat thoracic aorta assessed as noradrenaline-induced contractions after 30 mins; assay type: tissue-based; conditions: read-out: pA2 (converted)
T3 sequence (P23944 whole entry): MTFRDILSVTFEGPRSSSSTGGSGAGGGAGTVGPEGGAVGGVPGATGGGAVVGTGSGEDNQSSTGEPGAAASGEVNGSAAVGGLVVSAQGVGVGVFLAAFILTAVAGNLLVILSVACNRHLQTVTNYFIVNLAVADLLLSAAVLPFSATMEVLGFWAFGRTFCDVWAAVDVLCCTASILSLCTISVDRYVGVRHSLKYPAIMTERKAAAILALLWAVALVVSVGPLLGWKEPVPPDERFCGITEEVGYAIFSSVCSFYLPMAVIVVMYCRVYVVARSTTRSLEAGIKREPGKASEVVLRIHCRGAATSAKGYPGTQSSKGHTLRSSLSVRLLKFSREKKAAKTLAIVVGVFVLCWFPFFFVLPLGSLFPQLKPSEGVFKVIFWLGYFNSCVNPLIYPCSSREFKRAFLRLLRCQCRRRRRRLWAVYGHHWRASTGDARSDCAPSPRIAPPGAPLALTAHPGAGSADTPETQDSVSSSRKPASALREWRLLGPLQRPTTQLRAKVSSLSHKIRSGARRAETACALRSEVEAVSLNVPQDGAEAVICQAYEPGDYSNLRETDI

[7] = species: Rattus norvegicus; test: Selectivity ratio of pA2 for alpha1D adrenoceptor in Wistar rat thoracic aorta to pKb for alpha1B adrenoceptor in Wistar rat spleen
[8] = molecular target: T4, Alpha-1A adrenergic receptor (Rattus norvegicus) (UniProt P43140); test: Antagonist activity at alpha1A adrenoceptor in Wistar rat vas deferans assessed as noradrenaline-induced contractions after 30 mins
T4 sequence (whole entry): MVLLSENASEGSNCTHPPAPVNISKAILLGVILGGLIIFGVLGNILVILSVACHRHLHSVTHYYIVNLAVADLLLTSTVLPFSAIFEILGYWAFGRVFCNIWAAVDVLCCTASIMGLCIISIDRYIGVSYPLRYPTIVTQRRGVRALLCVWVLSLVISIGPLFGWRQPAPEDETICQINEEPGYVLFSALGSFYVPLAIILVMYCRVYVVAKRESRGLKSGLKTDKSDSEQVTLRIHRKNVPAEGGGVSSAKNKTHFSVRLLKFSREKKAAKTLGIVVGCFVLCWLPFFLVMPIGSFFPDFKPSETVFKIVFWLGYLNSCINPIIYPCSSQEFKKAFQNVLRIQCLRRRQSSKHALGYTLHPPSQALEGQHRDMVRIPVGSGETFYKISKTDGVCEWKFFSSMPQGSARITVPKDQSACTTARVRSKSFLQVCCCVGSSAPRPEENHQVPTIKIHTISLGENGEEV

[9] = molecular target: T5, Alpha-1B adrenergic receptor (Rattus norvegicus) (UniProt P15823); test: Antagonist activity at alpha1B adrenoceptor in Wistar rat spleen assessed as phenylephrine-induced contractions after 30 mins
T5 sequence (whole entry): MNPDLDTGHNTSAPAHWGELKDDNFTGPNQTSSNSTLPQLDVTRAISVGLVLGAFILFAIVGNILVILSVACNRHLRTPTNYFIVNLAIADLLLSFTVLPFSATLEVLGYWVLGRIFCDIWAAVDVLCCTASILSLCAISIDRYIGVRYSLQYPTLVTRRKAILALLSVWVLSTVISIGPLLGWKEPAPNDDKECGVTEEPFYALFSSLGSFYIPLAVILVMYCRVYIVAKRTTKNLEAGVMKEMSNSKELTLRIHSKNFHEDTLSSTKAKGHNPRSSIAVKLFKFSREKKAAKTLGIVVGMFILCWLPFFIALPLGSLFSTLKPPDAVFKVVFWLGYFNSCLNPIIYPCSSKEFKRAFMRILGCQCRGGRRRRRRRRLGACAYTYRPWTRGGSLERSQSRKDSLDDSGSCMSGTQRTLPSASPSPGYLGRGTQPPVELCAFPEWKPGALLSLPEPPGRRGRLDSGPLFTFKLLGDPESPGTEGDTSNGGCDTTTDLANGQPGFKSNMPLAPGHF

[10] = species: Rattus norvegicus; test: Selectivity ratio of pA2 for alpha1D adrenoceptor in Wistar rat thoracic aorta to pKb for alpha1A adrenoceptor in Wistar rat vas deferans
[11] = tested on: CHO; test: Selectivity index, ratio of pKi for human recombinant alpha1D adrenoceptor to pKi for human recombinant alpha1B adrenoceptor expressed in CHO cell membrane; assay type: cell-based
[12] = tested on: CHO; test: Selectivity index, ratio of pKi for human recombinant alpha1A adrenoceptor to pKi for human recombinant alpha1B adrenoceptor expressed in CHO cell membrane; assay type: cell-based
[13] = molecular target: T6, Alpha-1A adrenergic receptor (Homo sapiens, UniProt P35348); test: Displacement of [3H]prazosin from human recombinant alpha1A adrenoceptor expressed in CHO cell membrane after 30 mins by liquid scintillation counting; assay type: cell membranes
T6 sequence (P35348 whole entry): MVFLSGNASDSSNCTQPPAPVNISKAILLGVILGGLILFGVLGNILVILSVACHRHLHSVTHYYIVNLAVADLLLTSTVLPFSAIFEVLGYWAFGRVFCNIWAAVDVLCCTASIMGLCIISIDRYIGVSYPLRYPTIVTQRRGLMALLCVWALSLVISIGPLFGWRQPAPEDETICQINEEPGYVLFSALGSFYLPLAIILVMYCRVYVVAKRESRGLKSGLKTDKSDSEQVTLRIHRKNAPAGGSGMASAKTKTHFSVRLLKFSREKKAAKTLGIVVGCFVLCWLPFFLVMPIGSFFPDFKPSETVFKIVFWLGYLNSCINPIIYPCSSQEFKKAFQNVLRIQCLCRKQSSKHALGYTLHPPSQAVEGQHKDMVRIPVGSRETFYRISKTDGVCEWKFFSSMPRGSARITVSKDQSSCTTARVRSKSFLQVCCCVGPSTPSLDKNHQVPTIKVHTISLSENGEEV

[14] = molecular target: T7, Alpha-1B adrenergic receptor (Homo sapiens, UniProt P35368); test: Displacement of [3H]prazosin from human recombinant alpha1B adrenoceptor expressed in CHO cell membrane after 30 mins by liquid scintillation counting; assay type: cell membranes
T7 sequence (P35368 whole entry): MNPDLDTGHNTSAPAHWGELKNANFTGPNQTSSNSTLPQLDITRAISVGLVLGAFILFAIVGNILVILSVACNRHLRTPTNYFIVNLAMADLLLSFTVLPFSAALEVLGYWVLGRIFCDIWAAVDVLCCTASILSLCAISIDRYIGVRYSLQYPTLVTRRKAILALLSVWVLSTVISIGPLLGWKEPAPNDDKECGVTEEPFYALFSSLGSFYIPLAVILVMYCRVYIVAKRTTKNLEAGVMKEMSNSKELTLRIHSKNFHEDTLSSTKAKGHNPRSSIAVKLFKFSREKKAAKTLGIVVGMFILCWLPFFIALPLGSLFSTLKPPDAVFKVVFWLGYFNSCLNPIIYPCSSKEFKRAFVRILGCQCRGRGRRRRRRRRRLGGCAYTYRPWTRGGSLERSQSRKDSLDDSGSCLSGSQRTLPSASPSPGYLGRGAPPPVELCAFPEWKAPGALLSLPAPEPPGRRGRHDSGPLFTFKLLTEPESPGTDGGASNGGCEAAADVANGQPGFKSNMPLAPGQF

[15] = molecular target: T8, 5-hydroxytryptamine receptor 1A (Homo sapiens, UniProt P08908); test: Displacement of [3H]8-OH-DPAT from human recombinant 5-HT1A receptor expressed in HeLa cell membrane after 30 mins by liquid scintillation counting; assay type: cell membranes
T8 sequence (P08908 whole entry): T2 sequence (whole entry)

Row | Compound | Ki [1] | Ratio pKi [2] | Ratio [3] | Ratio pKi [4] | pD2 [5] | Kb [6] | Ratio [7] | pKb [8] | pKb [9] | Ratio [10] | Ratio pKi [11] | Ratio pKi [12] | Emax [5] | Ki [13] | Ki [14] | Ki [15]
1 | c1ccc(OCCNCC2COC(c3ccccc3)(c3ccccc3)O2)cc1 (racemic) | 11.7 nM | 3 | 0.5 | 3 | 8.8 | 6.31 nM | 219 | 6.16 | 5.86 | 110 | 5 | 2 | – | – | – | –
2 | c1ccc(OCCNC[C@H]2COC(c3ccccc3)(c3ccccc3)O2)cc1 | 14.5 nM | 4 | 1 | 9 | 6.85 | 24.5 nM | 30 | 6.2 | 6.14 | 26 | 8 | 1 | 50% | 126 nM | 115 nM | 3.8 nM
3 | c1ccc(OCCNC[C@@H]2COC(c3ccccc3)(c3ccccc3)O2)cc1 | 22.9 nM | 8 | 1 | 1 | 7.45 | 5.13 nM | 34 | 6.67 | 6.51 | 23 | 3 | 3 | 65.3% | 30.2 nM | 79.4 nM | 3.02 nM
